{"source": "patent EP0552624B1", "about": "“Use of 9-cis retinoic acid, salts and esters thereof for the treatment of epithelial tumors” (F. HOFFMANN-LA ROCHE AG, priority 1992, dated 1993)", "key": {"HeLa (tumorigenic) [1]": {"test_system": "HeLa (tumorigenic)", "test": "Tumor cell induced angiogenesis, in vitro preincubation of cells, HeLa", "assay_type": "in vivo", "conditions": "HeLa cells preincubated in vitro 48 hours with 10^-7 M, injected intradermally into untreated Balb/c mice; controls 32.5±2.7", "description": "(§1) The angiogenesis assays have been, previously described (Sidky YA and Auerbach R. Lymphocyte induced angiogenesis: A quantitative and sensitive assay of the graft-vs-host reaction. J. exp Med 141: 1084-1100, 1975. Majewski S et al. Inhibition of tumour-induced angiogenesis by systemically administered protamine sulphate. Int J Cancer 33: 831-833, 1984). Two assays were used in testing 9-cis retinoic acid. In the first assay the retinoid was added in vitro to the cell line before being injected into mice. In the second assay the mice were injected intraperitoneally with the retinoid in vivo before the tumor cell line was injected intradermally.\n(§2) Method: Cells of two tumorigenic cell lines, SKv-e2 and HeLa, and of a non-tumorigenic cell line, SKv-e1 were preincubated in vitro for 48 hours with 9-cis retinoic acid at a concentration of 10^-7 M followed by cell counting and washing in TC 199 medium. The cell concentration was adjusted to 2·10^5 viable cells per 0.1 ml of medium and injected intradermally into X-ray irradiated, but not retinoid-treated Balb/c mice. Controls were injected with tumor cells preincubated with DMSO. The angiogenic effect was determined according to the methods referred to above."}, "SKv-12 (Tumorigenic)": {"test_system": "SKv-12 (Tumorigenic)", "test": "Cell induced angiogenesis, in vivo pretreatment of mice, SKv-12", "parameters": "species or system Balb/c mice", "conditions": "mice pretreated in vivo intraperitoneally before intradermal cell injection, control 30.3 ± 2.6", "description": "as §1"}, "[2]": {"test": "Acute toxicity, single intraperitoneal dose", "assay_type": "in vivo, Füllinsdorf albino mice", "conditions": "single i.p. dose in rape oil", "description": "Acute Toxicity was determined in Füllinsdorf albino mice. 9-cis retinoic acid was suspended in rape oil and administered intraperitoneally in one single dose. The lethal dose (LD) of 10%, 50% and 90% of the mice was recorded 24 hours, 10 days and 20 days after the application of the single dose. For each group 10 mice were used."}, "SKv-e2 (tumorigenic) [3]": {"test_system": "SKv-e2 (tumorigenic)", "test": "Tumor cell induced angiogenesis, in vitro preincubation of cells, SKv-e2", "assay_type": "in vivo", "conditions": "SKv-e2 cells preincubated in vitro 48 hours with 10^-7 M, injected intradermally into untreated Balb/c mice; controls 34.7±3.7", "description": "as §1, §2"}, "HeLa (tumorigenic) [4]": {"test_system": "HeLa (tumorigenic)", "test": "Cell induced angiogenesis, in vivo pretreatment of mice, HeLa", "parameters": "species or system Balb/c mice", "conditions": "mice pretreated in vivo intraperitoneally before intradermal cell injection, control 28.3 ± 0.8", "description": "as §1"}, "SKv-e2 (tumorigenic) [5]": {"test_system": "SKv-e2 (tumorigenic)", "test": "Cell induced angiogenesis, in vivo pretreatment of mice, SKv-e2", "parameters": "species or system Balb/c mice", "conditions": "mice pretreated in vivo intraperitoneally before intradermal cell injection, control 31.3 ± 2.7", "description": "as §1"}, "SKv-e1 (non-tumorigenic) [6]": {"test_system": "SKv-e1 (non-tumorigenic)", "test": "Cell induced angiogenesis, in vivo pretreatment of mice, SKv-e1", "parameters": "species or system Balb/c mice", "description": "as §1"}, "[7]": {"test_system": "SKv-l1, a transformed keratinocyte cell line containing human papilloma virus 16 (HPV 16)", "test": "Proliferation assay by direct cell counting on HPV 16-containing transformed keratinocytes", "assay_type": "cell-based", "conditions": "48 h, 10^-6 M, incubated for 2 days, p < 0.001, read-out: inhibited proliferation (growth inhibition in % compared to controls)", "description": "9-cis retinoic acid was further investigated on its effect on other transformed cell lines. A proliferation assay was performed on a virus containing cell line. SKv-l1, a transformed keratinocyte cell line containing human papilloma virus 16 (HPV 16) was tested with regard to inhibition of proliferation by 9-cis retinoic acid in two experiments with four replicates. 5·10^4 cells/well were plated in Eagle's medium and incubated for 2 days. Direct cell counting with a hemocytometer was done before and after incubation with the retinoid in a concentration of 10^-6 M and in corresponding DMSO controls. Growth inhibition was expressed in % compared to controls."}, "SKv-e1 (non-tumorigenic) [8]": {"test_system": "SKv-e1 (non-tumorigenic)", "test": "Cell induced angiogenesis, in vitro preincubation of cells, SKv-e1", "assay_type": "in vivo, Balb/c mice", "description": "as §1, §2"}}, "data": [{"smiles": "CC(=CC=C/C(C)=C/C(=O)O)/C=C/C1=C(C)CCCC1(C)C", "note": "(stereo in doubt) [9-cis retinoic acid, (E,Z,E,E)-3,7-dimethyl-9-[2,6,6-trimethyl-1-cyclohexen-1-yl]-2,4,6,8-nonatetraenoic acid]", "values": [{"measurement": "Mean number of blood vessels", "setting": "HeLa (tumorigenic) [1]", "result": "23.8±2.9", "unit": "p < 0.001"}, {"measurement": "Mean number of blood vessels", "setting": "SKv-12 (Tumorigenic)", "result": "15.3 ± 1.0"}, {"measurement": "LD50 at 24 hours", "setting": "[2]; Füllinsdorf albino, mouse, in vivo, ip, recorded 24 hours after", "result": "> 4000", "unit": "mg/kg"}, {"measurement": "LD50 at 10 days", "setting": "[2]; Füllinsdorf albino, mouse, in vivo, ip, recorded 10 days after", "result": 1400, "unit": "mg/kg"}, {"measurement": "LD50 at 20 days", "setting": "[2]; Füllinsdorf albino, mouse, in vivo, ip, recorded 20 days after", "result": 1400, "unit": "mg/kg"}, {"measurement": "LD 10%", "setting": "[2]; recorded 24 hours after", "result": "> 4000", "unit": "mg/kg"}, {"measurement": "LD 90%", "setting": "[2]; recorded 24 hours after", "result": "> 4000", "unit": "mg/kg"}, {"measurement": "LD 10%", "setting": "[2]; recorded 10 days after", "result": 1200, "unit": "mg/kg"}, {"measurement": "LD 90%", "setting": "[2]; recorded 10 days after", "result": 1800, "unit": "mg/kg"}, {"measurement": "LD 10%", "setting": "[2]; recorded 20 days after", "result": 1200, "unit": "mg/kg"}, {"measurement": "LD 90%", "setting": "[2]; recorded 20 days after", "result": 1800, "unit": "mg/kg"}, {"measurement": "Mean number of blood vessels", "setting": "SKv-e2 (tumorigenic) [3]", "result": "23.6±4.2", "unit": "p < 0.001"}, {"measurement": "Mean number of blood vessels", "setting": "HeLa (tumorigenic) [4]", "result": "16.3 ± 1.8"}, {"measurement": "Mean number of blood vessels", "setting": "SKv-e2 (tumorigenic) [5]", "result": "19.7 ± 0.6"}, {"measurement": "Mean number of blood vessels", "setting": "SKv-e1 (non-tumorigenic) [6]; SKv-e1, mice pretreated in vivo intraperitoneally before intradermal cell injection, control 19.7 ± 3.7", "result": "24.3 ± 5.6"}, {"measurement": "anti-angiogenic effect with a non-tumorigenic cell line", "setting": "SKv-e1 (non-tumorigenic) [6]; mice treated in vivo, result in words", "result": "no anti-angiogenic effect"}, {"measurement": "inhibition at 1 µM", "setting": "[7]", "result": 32.4, "unit": "%"}, {"measurement": "Mean number of blood vessels", "setting": "SKv-e1 (non-tumorigenic) [8]; SKv-e1 cells preincubated in vitro 48 hours with 10^-7 M, injected intradermally into untreated Balb/c mice, controls 26.3±1.5", "result": "25.6±2.2", "unit": "p < 0.1"}, {"measurement": "angiogenesis induced by the non-tumorigenic subline", "setting": "SKv-e1 (non-tumorigenic) [8]; in vitro preincubation of SKv-e1 cells, result in words", "result": "did not inhibit angiogenesis"}]}]}
